{"source": "patent US4788216A", "about": "“Medicinal uses for podophyllotoxins” (Conpharm AB, priority 1984, dated 1988)", "key": {"Acute toxicity in rabbit": {"test": "Acute toxicity in rabbit", "conditions": "in vivo, topical or ocular, dermal", "source_text": "(§1) The acute toxicity of podophyllotoxin has been determined on various test animals and by various ways of administration."}, "proliferation of cells": {"tested_on": "proliferation of cells", "test": "In vitro proliferation of cells caused by mitogenic lectins or cells from a non-related individual", "format": "cell-based"}, "[1]": {"tested_on": "psoriasis vulgaris lesions", "test": "Clinical investigation in psoriasis vulgaris patients, topical cream", "format": "in vivo, human (patients)", "procedure": "A clinical investigation was carried out with totally 152 patients of an age between 19 and 71 years (mean value 46.1 years) afflicted with psoriasis vulgaris. The patients were divided into three groups of 50, 51 and 51 persons who were treated topically with a cream containing 0.1, 0.25 and 0.5% of podophyllotoxin, respectively. Each patient was treated only on a specific attacked area of the body while other attacked areas served as comparison. The severity of the attack was judged at the start of the treatment, and 2, 4, 8, 12 and 16 weeks after this, no treatment being carried out during the last period of 4 weeks. The investigation was carried out with double blind technique and the results were treated statistically."}, "Acute toxicity in mouse": {"test": "Acute toxicity in mouse", "conditions": "in vivo", "source_text": "as §1"}, "Solubility in water": {"test": "Solubility in water", "format": "physicochemical", "conditions": "in its pure state", "source_text": "The compound podophyllotoxin has the following physical data in its pure state: […]"}, "Plasmodium falciparum": {"tested_on": "Plasmodium falciparum", "test": "Clinical effect against malaria (number of asexual parasites in blood of patients)", "format": "in vivo", "conditions": "individual patient", "procedure": "The effect against malaria was determined clinically on a number of patients which had been attacked by the malaria parasite Plasmodium falciparum. Podophyllotoxin was administered in two different doses and the number of parasites in the patients was determined for each day and was noted as the number of asexual parasites per cubic millimeter of blood."}, "[2]": {"tested_on": "formation of specific antibodies", "test": "Antibody formation in mice injected with sheep erythrocytes", "format": "in vivo", "conditions": "daily injections after administration of erythrocytes, spleen", "source_text": "Injection with a suspension of erythrocytes from sheep to mice causes formation of specific antibodies against this antigen. This reaction which normally is very strong requires a cooperation between different cell types, substantially macrophages, T and B lymphocytes, and can easily be detected in the spleen of the test animals."}, "cytotoxic cells": {"tested_on": "cytotoxic cells", "test": "In vitro development of cytotoxic cells", "format": "cell-based"}, "Acute toxicity in rat": {"test": "Acute toxicity in rat", "conditions": "in vivo", "source_text": "as §1"}}, "note": "Values joined by “and” are separate entries in the source; they are usually repeats but may differ in a detail not shown here. Equal values may be shown once.", "data": [{"smiles": "COc1cc([C@@H]2c3cc4c(cc3[C@H](O)[C@H]3COC(=O)[C@H]23)OCO4)cc(OC)c1OC", "note": "[podophyllotoxin]", "values": [{"measurement": "LD50", "setting": "Acute toxicity in rabbit", "result": 200, "unit": "mg/kg"}, {"measurement": "time to recover complete reactivity to the stimuli", "setting": "proliferation of cells; cells treated with podophyllotoxin", "result": "≤ 24", "unit": "h"}, {"measurement": "effects at markedly lower doses (proliferation)", "setting": "proliferation of cells; in vitro, markedly lower doses", "result": "at markedly lower doses these effects increase"}, {"measurement": "inhibition of proliferation of cells", "setting": "proliferation of cells; in vitro, mitogenic lectins or cells from a non-related individual", "result": "inhibits the proliferation of cells"}, {"measurement": "reversibility of secondary effects", "setting": "[1]; after interruption of the treatment", "result": "disappeared after interruption of the treatment"}, {"measurement": "difference between treated and untreated lesions", "setting": "[1]; after two weeks and in the course of the treatment", "result": "statistically significant difference"}, {"measurement": "patients free from symptoms or with only mild ones", "setting": "[1]; at the fifth control, untreated lesions: only two patients", "result": "70-75%"}, {"measurement": "improvement of severity of treated lesions with associated symptoms", "setting": "[1]; cream 0.1, 0.25 and 0.5%, all three dosage levels", "result": "statistically significant improvements"}, {"measurement": "patients reporting secondary effects such as rash", "setting": "[1]; of 152 patients, three cream strengths together", "result": 11, "unit": "patients"}, {"measurement": "deterioration of severity or symptoms of treated lesions in follow-up", "setting": "[1]; weeks 13 to 16, no treatment", "result": "no deterioration occurred"}, {"measurement": "LD50", "setting": "Acute toxicity in mouse; iv", "result": 20, "unit": "mg/kg"}, {"measurement": "LD50", "setting": "Acute toxicity in mouse; po", "result": 100, "unit": "mg/kg"}, {"measurement": "solubility", "setting": "Solubility in water", "result": 120, "unit": "µg/mL"}, {"measurement": "Remarks (outcome)", "setting": "Plasmodium falciparum; 1.5 mg per day (t.i.d.)", "result": "Marked reduction of parasites"}, {"measurement": "number of asexual parasites, day 0", "setting": "Plasmodium falciparum; 1.5 mg per day (t.i.d.)", "result": "660 asexual parasites per cubic mi and 13710 asexual parasites per cubic mi and 1410 asexual parasites per cubic mi and 960 asexual parasites per cubic mi and 13080 asexual parasites per cubic mi and 4380 asexual parasites per cubic mi"}, {"measurement": "number of asexual parasites, day 1", "setting": "Plasmodium falciparum; 1.5 mg per day (t.i.d.)", "result": "180 asexual parasites per cubic mi and 3000 asexual parasites per cubic mi and 360 asexual parasites per cubic mi and 90 asexual parasites per cubic mi and 510 asexual parasites per cubic mi and 1560 asexual parasites per cubic mi"}, {"measurement": "number of asexual parasites, day 2", "setting": "Plasmodium falciparum; 1.5 mg per day (t.i.d.)", "result": "0 asexual parasites per cubic mi and 120 asexual parasites per cubic mi and 180 asexual parasites per cubic mi"}, {"measurement": "number of asexual parasites, day 3", "setting": "Plasmodium falciparum; 1.5 mg per day (t.i.d.)", "result": "0 asexual parasites per cubic mi and 660 asexual parasites per cubic mi"}, {"measurement": "number of asexual parasites, day 4", "setting": "Plasmodium falciparum; 1.5 mg per day (t.i.d.)", "result": "180 asexual parasites per cubic mi and 0 asexual parasites per cubic mi and 60 asexual parasites per cubic mi and 1400 asexual parasites per cubic mi"}, {"measurement": "number of asexual parasites, day 5", "setting": "Plasmodium falciparum; 1.5 mg per day (t.i.d.)", "result": "270 asexual parasites per cubic mi and 0 asexual parasites per cubic mi and 60 asexual parasites per cubic mi"}, {"measurement": "number of asexual parasites, day 6", "setting": "Plasmodium falciparum; 1.5 mg per day (t.i.d.)", "result": "270 asexual parasites per cubic mi and 0 asexual parasites per cubic mi and 60 asexual parasites per cubic mi"}, {"measurement": "number of asexual parasites, day 7", "setting": "Plasmodium falciparum; 1.5 mg per day (t.i.d.)", "result": "270 asexual parasites per cubic mi and 0 asexual parasites per cubic mi and 60 asexual parasites per cubic mi"}, {"measurement": "Remarks (outcome)", "setting": "Plasmodium falciparum; 3.0 mg per day (t.i.d.)", "result": "Cured"}, {"measurement": "number of asexual parasites, day 0", "setting": "Plasmodium falciparum; 3.0 mg per day (t.i.d.)", "result": "2880 asexual parasites per cubic mi and 2060 asexual parasites per cubic mi and 6080 asexual parasites per cubic mi and 320 asexual parasites per cubic mi"}, {"measurement": "number of asexual parasites, day 1", "setting": "Plasmodium falciparum; 3.0 mg per day (t.i.d.)", "result": "2520 asexual parasites per cubic mi and 1600 asexual parasites per cubic mi and 2000 asexual parasites per cubic mi and 60 asexual parasites per cubic mi"}, {"measurement": "number of asexual parasites, day 2", "setting": "Plasmodium falciparum; 3.0 mg per day (t.i.d.)", "result": "60 asexual parasites per cubic mi and 0 asexual parasites per cubic mi"}, {"measurement": "number of asexual parasites, day 3", "setting": "Plasmodium falciparum; 3.0 mg per day (t.i.d.)", "result": "540 asexual parasites per cubic mi and 0 asexual parasites per cubic mi"}, {"measurement": "number of asexual parasites, day 4", "setting": "Plasmodium falciparum; 3.0 mg per day (t.i.d.)", "result": "600 asexual parasites per cubic mi and 0 asexual parasites per cubic mi"}, {"measurement": "number of asexual parasites, day 5", "setting": "Plasmodium falciparum; 3.0 mg per day (t.i.d.)", "result": "600 asexual parasites per cubic mi and 0 asexual parasites per cubic mi"}, {"measurement": "number of asexual parasites, day 6", "setting": "Plasmodium falciparum; 3.0 mg per day (t.i.d.)", "result": "0 asexual parasites per cubic mi"}, {"measurement": "number of asexual parasites, day 7", "setting": "Plasmodium falciparum; 3.0 mg per day (t.i.d.)", "result": "0 asexual parasites per cubic mi"}, {"measurement": "inhibition of antibody formation against sheep erythrocytes", "setting": "[2]", "result": "inhibited in a dose-dependent way"}, {"measurement": "inhibition of development of cytotoxic cells", "setting": "cytotoxic cells", "result": "inhibits the development of cytotoxic cells"}, {"measurement": "effects at markedly lower doses (development of cytotoxic cells)", "setting": "cytotoxic cells; markedly lower doses", "result": "at markedly lower doses these effects increase"}, {"measurement": "LD50", "setting": "Acute toxicity in rat; iv", "result": 10, "unit": "mg/kg"}, {"measurement": "LD50", "setting": "Acute toxicity in rat; topical or ocular, dermal", "result": 500, "unit": "mg/kg"}]}]}
